Measurements taken from the NIST ThermoML archive (doi:10.1021/je400272k).

Experiment: wn = mass fraction of the nth substance listed
Conditions: Liquid, Vibrating tube method

CCCC[N+](CCCC)(CCCC)CCCC.[Br-] [tetrabutylammonium bromide] + O
mass density [kg/m3]
Conditions	100 kPa	1000 kPa	2000 kPa	3000 kPa	4000 kPa	5000 kPa
293.15 K, w1 = 0.1	–	–	–	1007.5	1007.9	1008.3
293.15 K, w1 = 0.14	–	–	–	1011.2	1011.6	1012.1
293.15 K, w1 = 0.2	–	–	1017	1017.5	1017.8	1018.2
293.15 K, w1 = 0.3	–	–	1027.1	1027.5	1027.9	1028.2
293.15 K, w1 = 0.4	–	–	1036	1036.4	1036.8	1037.1
298.15 K, w1 = 0.1	1004.9	1005.3	1005.7	1006.1	1006.5	1006.9
298.15 K, w1 = 0.14	1008.4	1008.7	1009.1	1009.5	1009.9	1010.3
298.15 K, w1 = 0.2	1014.2	1014.5	1014.9	1015.3	1015.7	1016.1
298.15 K, w1 = 0.3	1023.7	1024	1024.4	1024.8	1025.1	1025.5
298.15 K, w1 = 0.4	1031.9	1032.3	1032.7	1033	1033.3	1033.7
303.15 K, w1 = 0.1	1003.2	1003.7	1004.1	1004.5	1005	1005.4
303.15 K, w1 = 0.14	1006.3	1006.6	1007	1007.4	1007.7	1008.1
303.15 K, w1 = 0.2	1011.9	1012.4	1012.8	1013.2	1013.6	1014
303.15 K, w1 = 0.3	1020.7	1021.2	1021.6	1022	1022.4	1022.7
303.15 K, w1 = 0.4	1028.6	1029.2	1029.5	1029.9	1030.3	1030.7
